Experimental data published in patent publication EP1296995B1, “3'-PRODRUGS OF 2'-DEOXY-BETA-L-NUCLEOSIDES” (priority 2000, dated 2001).
Values after ≈ are worked out from the molar mass of the structure shown. “Also recorded” adds a separate entry of the source. Where a name gives a salt, the structure may show the parent alone. Read-outs that look alike come from different tables or passages of the source. Each block holds one molecule with its values, some of them ahead of it.

Columns and labels:
physchem [1] = assay: physchem
Experimental: (§1) To 1 mL of this solution, 1 mL of octanol-1 (B) saturated with 0.02 M phosphate buffer solution (A) was added. The resultant mixture was shaken and centrifuged; three samples from each phase was collected and analyzed by HPLC, as shown in Table 10. […]
as §1, with “The solution was then saturated with octanol-1 (B). To” for “To”, “11.” for “10.”

in vivo [2] = details: monkey, po
[3] = Log P' study, MilliQ water / octanol-1; type: physicochemical; details: for P' (B/A'): MilliQ water pH 6.5 (A') / octanol-1 (B), Study 1 and Study 2
in vivo [4] = details: monkey, po; remark: listed apart in the source
in vivo [5] = details: monkey
Excerpt: […]. […] Clinical observations were documented daily. Blood samples for hematology and serum chemistries were collected and body weight measured before treatment on Days 1, 4, 7, 10, and 14, and before necropsy on Day 17. After completion of Day 17 evaluations, all animals were euthanized and a complete necropsy performed, including macroscopic examination and comprehensive tissue collection.

[6] = Oral bioavailability of L-dC via dival-L-dC (HPLC); details: cynomolgus monkey
Excerpt: The drug was quantitated in plasma and in urine using HPLC analysis.

in vitro [7] = details: human, plasma
in vivo [8] = assay: in vivo; parameters: species or system cynomologus monkeys (macaca fascicularis); details: cynomolgus monkey
Excerpt: The drug was quantitated in plasma and urine with a liquid chromatography-mass spectrometry (LC-MS) technique.

in vivo [9] = details: rat
Experimental: Clinical observations were documented once daily. Body weights were documented before dosing on Days 1, 8, 15, 22, and 28 and before necropsy on Day 29. Food consumption was documented weekly. Blood samples for hematology and serum chemistries also were collected before necropsy on Day 29.
Toxicokinetics. An additional 54 animals (27 males and 27 females) had samples collected for pharmacokinetic analyses on Days 1 and 28. […] Analysis of the 500 mg/kg group is in progress.

in vitro [10] = details: human, plasma; remark: listed apart in the source
in vivo [11] = details: rat, po
physchem [12] = details: water
[13] = Stability study in buffers at various pH; type: physicochemical
HBV [14] = assay: Antiviral activity against HBV in 2.2.15 cells (reduction of HBV DNA)
[15] = monkey, in vivo
HepG2 cells = assay: in vitro
Excerpt: (§2) These studies included analysis of lactic acid production, mtDNA content and determination of changes in morphology (e.g., loss of cristae, matrix dissolution and swelling, and lipid droplet formation) of mitochondrial ultrastructure.

in vitro [16] = details: human, hepg2 cells
Excerpt: as §2

[17] = monkey, in vivo; remark: listed apart in the source
HIV-1 = details: read-out: EC50 HIV-1 (PBMC)
VZV = assay: Antiviral panel: VZV in HFF; type: cell-based
2.2.15 = assay: Cytotoxicity in 2.2.15 cells
[18] = tested on: Salmonella typhimurium strains TA98, TA100, TA1535, and TA1537 and escherichia coli strain WP2uvrA; assay: S. typhimurium and E. coli plate incorporation mutation assay; type: cell-based
Experimental: L-dC was tested for its potential to cause mutation at the histidine operon of Salmonella typhimurium strains TA98, TA100, TA1535, and TA1537 and at the tryptophan opeton of escherichia coli strain WP2uvrA. L-dC at concentrations of […] plus positive and negative controls were tested. […] After incubation for approximately 68 hours, L-dC and controls were evaluated for the number of revertants per plate and integrity of the background microcolony lawn.

WHV [19] = assay: Woodchuck model of chronic hepatitis B infection, 28 days; type: in vivo, woodchucks
EBV = assay: Antiviral panel: EBV in Daudi; type: cell-based
WHV [20] = assay: Woodchuck model, twelve-week study; type: in vivo, woodchucks; details: 1 mg/kg/day
Experimental: WHV DNA levels were determined by quantitative PCR.

Rats Primary Hepatocytes = assay: Intracellular metabolism of L-dC in rat primary hepatocytes; details: 10 µM L-dC, 24 hours
[21] = molecular target: virion-associated DNA polymerase of WHV; assay: Endogenous polymerase assay, virion-associated DNA polymerase; type: biochemical
[22] = tested on: Monkey Primary Hepatocytes; assay: Intracellular metabolism of L-dC in monkey primary hepatocytes; details: 10 µM L-dC, 24 hours, n=1
HBV [23] = details: human, 2.2.15 cells
[24] = rhesus monkey, in vivo, po
[25] = 0.02 m phosphate buffer, pH 7.2

Compound: CC(=O)OC[C@@H]1O[C@H](n2ccc(N)nc2=O)C[C@H]1OC(C)=O [3'5'-diacetyl-L-dC, 3',5'-Di-O-acetyl-2'-deoxy-β-L-cytidine]
logD (physchem [1]; [25]): -0.74
bioavailability (in vivo [2]): 23 ± 6.5%

Compound: CC(C)[C@H](N)C(=O)OC[C@@H]1O[C@H](n2ccc(N)nc2=O)C[C@H]1OC(=O)[C@@H](N)C(C)C [3'5'-dival-L-dC, 3,5'-L-Valine ester of 2'-deoxy-β-L-cytidine hydrochloride]
logD (physchem [1]; [25]): -0.86
degraded (physchem [1]; octanol-1, pH 7.2): 14%
degraded (physchem [1]; phosphate buffer, pH 7.2): 50%
Fa (in vivo [2]): ~73%
bioavailability (in vivo [2]): 72.7 ± 22%
P' (B/A') [3]: 1.80 x10^-3
P' (B/A') ([3]; listed as L-dC-3',5'-divalinyl ester hydrochloride, hydrochloride): 1.77 x 10^-3
conversion to the monoesters or L-dC during log P' experiment ([3]; aqueous or organic phases, MilliQ water): No conversion
NOAEL at 600 h (in vivo [4]): < 500 mg/kg
RBC, HGB and HCT lower at Day 17 compared to Day 1 (in vivo [5]): 15-27%
decrease of BUN at Day 17 compared to Day 1 (in vivo [5]): ~43%
NOAEL (in vivo [5]; po): 2000 mg/kg
dose excreted at 8 h ([6]; urine, 10 mg/kg): ~26%
dose excreted at 72 h ([6]; urine, 10 mg/kg): 31%
fraction unbound (in vitro [7]): 0.867
share of drug excreted in the urine (total recovered dose) (in vivo [8]; iv): approximately 0.15%
share of drug excreted in the urine (total recovered dose) (in vivo [8]; po): No dival-L-dC was detected
NOAEL at […] (in vivo [9]; po): < 500 mg/kg
half-life (in vitro [10]): ~39 min
NOAEL at 360 h (in vivo [11]): 2000 mg/kg

Compound: CC(C)[C@H](N)C(=O)O[C@@H]1C[C@@H](n2ccc(N)nc2=O)O[C@H]1CO [3'-val-L-dC, 3'-valinyl ester of β-L-deoxyribocytosine]
logD (physchem [1]; 0.02 m phosphate buffer, pH 7.2, log P (octanol/water)): -1.53
bioavailability (in vivo [2]): 85.1 ± 24.5%
solubility (physchem [12]): > 408 mg/mL
half-life ([13]; 0.2m tris-hcl, pH 7.4): 420 min
half-life ([13]; pH 1.2 (135 mM KCl-HCl buffer solution), read-out: half-life): > 2880 min

Compound: Nc1ccn([C@@H]2CS[C@H](CO)O2)c(=O)n1 [3TC, (-)-enantiomer of cis-2-hydroxymethyl-5-(cytosin-1-yl)-1,3-oxathiolane, reference compound]
S.I. (CC50/EC90) (HBV [14]; 2.2.15 cells): > 5,000

Compound: CC(C)[C@H](N)C(=O)OC[C@@H]1O[C@H](n2ccc(N)nc2=O)C[C@H]1O [5'-val-L-dC, 5'-L-valine ester of 2'-deoxy-β-L-cytidine hydrochloride]
Tlast (median) [15]: 10 h
median Tmax ([15]; po): 1 h
bioavailability (in vivo [2]): 39 ± 11.4%
share of drug excreted in the urine (total recovered dose) (in vivo [8]; iv): ~3.7%
concentration at 2 h (in vivo [8]; iv, 10 mg/kg): 80 nM
share of drug excreted in the urine (total recovered dose) (in vivo [8]; po): ~0.2%
AUClast higher for females than males (in vivo [9]): 25-50%
AUClast higher on Day 28 vs. Day 1 (in vivo [9]): 30-62%
Tmax (in vivo [9]; po): 1 to 2 h

Compound: Nc1ccn([C@H]2C[C@H](O)[C@@H](CO)O2)c(=O)n1 [D-dC, D-Deoxycytidine]
P(B/A) (physchem [1]; [25]): 0.039
log P (octanol/water) (physchem [1]; [25]): -1.41

Compound: O=c1[nH]c(=O)n([C@@H]2O[C@H](CO)[C@@H](O)[C@@H]2F)cc1I [FIAU, fialuridine]
Lipid Droplet Formation (HepG2 cells; Conc. (µM): L-dC 10, FIAU 10, ZDV 50, ddC 1): positive
Mitochondrial Morphology (HepG2 cells; Conc. (µM): L-dC 10, FIAU 10, ZDV 50, ddC 1, electron microscopy): abnormal
increase of lactic acid production compared to vehicle control (HepG2 cells; HepG2 cells): 100%
activity (in vitro [16]): 203%
activity at 336 h (in vitro [16]): 86%

Compound: Nc1ccn([C@@H]2C[C@@H](O)[C@H](CO)O2)c(=O)n1 [L-dC, 2'-deoxy-β-L-cytidine]
AUC(0-t) ([17]; iv, 10 mg/kg): 81.1 µM·h
AUC(0-t) ([17]; po, 10 mg/kg): 13.7 µM·h
EC50 (HIV-1): > 200 µM
EC50 VZV (HFF) (VZV): 18.6 µg/mL (≈ 0.0819 mM)
CC50 (2.2.15; 2.2.15): > 2 mM
CC50 (2.2.15; 2.2.15 cells, 50% inhibition of neutral red dye uptake, combination study): 3 ± 0.096 mM
mutagenicity ([18]; concentrations up to 5000 µg/plate): not mutagenic
mutagenicity ([18]; concentrations up to 5000 mg/plate, with and without rat liver S-9): no evidence of mutagenicity
body weight (WHV [19]; compared to control animals, 28 days 0.01-10 mg/kg/day): no weight loss
toxicity (WHV [19]; four-week treatment phase and eight-week follow-up, 0.01-10 mg/kg/day orally): no drug-related toxicity; also recorded: No toxicity was observed
Lipid Droplet Formation (HepG2 cells): negative
CC50 (HepG2 cells; HepG2 cells, after 14 days of treatment): > 2 mM
S.I. (CC50/EC90) (HBV [14]; 2.2.15 cells): 2,727
HBV replication returned to 50% of pretreatment levels (HBV [14]; viral rebound after drug withdrawal, 2.2.15 cells): ≤ 18 day post-treatment
EC50 EBV (Daudi) (EBV): >50 µg/mL
toxicity (WHV [20]; 12-week treatment phase and 12-week follow-up): no drug-related toxicity
end-of-treatment liver biopsies (WHV [20]; 12 weeks): no histomorphological evidence of fatty changes (microvesicular steatosis); also recorded: no evidence of fatty change (microvesicular steatosis)

Compound: Nc1ccn([C@@H]2C[C@@H](O)[C@H](COP(=O)(O)OP(=O)(O)OP(=O)(O)O)O2)c(=O)n1 [L-dC-TP]
intracellular metabolite level (Rats Primary Hepatocytes): 14.2 ± 3.1 µM
IC50 ([21]; endogenous polymerase assay, read-out: IC50 viral DNA pol (WHV DNA polymerase)): 1.82 ± 0.23 µM
intracellular metabolite level [22]: 39.3 µM

Compound: Cc1cn([C@@H]2C[C@@H](O)[C@H](CO)O2)c(=O)[nH]c1=O [L-dT, β-L-2'-deoxythymidine, reference compound]
S.I. (CC50/EC90) (HBV [23]): 2,518
EC90 (HBV [14]; 10-fold reduction of HBV virion DNA levels, combination study): 1200 ± 100 nM

share of the dose recovered in the urine ([17]; iv, 10 mg/kg): 4.0%
share of drug excreted in the urine (total recovered dose) ([17]; po): 29%
share of drug excreted in the urine (recovered dose) ([6]; in vivo): approximately 10%
share of drug excreted in the urine (total recovered dose) (in vivo [8]; iv): approximately 2.5%
concentration (in vivo [8]; iv, 10 mg/kg): 220 to 880 nM
share of drug excreted in the urine (total recovered dose) (in vivo [8]; po): approximately 2.5%
concentration (in vivo [8]; po, 10 mg/kg, 8 h): 390 nM
share of drug excreted in the urine (total recovered dose) [24]: 23%
Compound: O=c1ccn([C@@H]2C[C@@H](O)[C@H](CO)O2)c(=O)[nH]1 [L-dU, β-L-2'-deoxyuridine]

Compound: O=c1ccn([C@@H]2C[C@@H](O)[C@H](COP(=O)(O)OP(=O)(O)OP(=O)(O)O)O2)c(=O)[nH]1 [L-dU-TP, β-L-2'-deoxyuridine 5'-triphosphate]
intracellular metabolite level (Rats Primary Hepatocytes): 46.9 ± 5.2 µM
IC50 ([21]; target as printed, read-out: IC50 in vitro against hepatitis B virus DNA polymerase): 5.26 µM
intracellular metabolite level [22]: 21.9 µM

Compound: CC(=O)Nc1ccn([C@@H]2C[C@@H](O)[C@H](CO)O2)c(=O)n1 [N^4-acetyl-L-dC, N^4-Acetyl-2'-deoxy-β-L-cytidine]
half-life ([13]; pH 1.2, read-out: half-life): 50 min

Compound: Nc1ccn([C@H]2CC[C@@H](CO)O2)c(=O)n1 [ddC, zalcitabine]
Lipid Droplet Formation (HepG2 cells): negative
Mitochondrial Morphology (HepG2 cells): abnormal
activity (in vitro [16]): 95 ± 4.4%
activity at 336 h (in vitro [16]): 13%
inhibition at 336 h (in vitro [16]): 87%
